Molecular target: bovine cardiac myofibrils (full-length cardiac myosin ATPase in the native sarcomere) (Bos taurus (Bovine), UniProt Q9BE39)
Assay: Skinned bovine cardiac myofibril ATPase assay (PK/LDH-coupled)
Assay type: biochemical
Conditions: Ca2+ activating to 75% of maximal rate; for CDMF75 IC15: concentration giving 15% inhibition; for IC50: read-out: CDMF75 IC50
How it was run: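 Inhibition of steady-state ATPase read at 340 nm through a PK/LDH-coupled NADH system (0.5 mM NADH, 1.5 mM PEP). Detergent-skinned bovine cardiac myofibrils, 1 mg/mL, were tested at pH 6.8 in PIPES/MgCl2 with 50 μM ATP and calcium adjusted to give pCa50 or pCa75 activation.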

Sequence of bovine cardiac myofibrils (full-length cardiac myosin ATPase in the native sarcomere) (Q9BE39 whole entry): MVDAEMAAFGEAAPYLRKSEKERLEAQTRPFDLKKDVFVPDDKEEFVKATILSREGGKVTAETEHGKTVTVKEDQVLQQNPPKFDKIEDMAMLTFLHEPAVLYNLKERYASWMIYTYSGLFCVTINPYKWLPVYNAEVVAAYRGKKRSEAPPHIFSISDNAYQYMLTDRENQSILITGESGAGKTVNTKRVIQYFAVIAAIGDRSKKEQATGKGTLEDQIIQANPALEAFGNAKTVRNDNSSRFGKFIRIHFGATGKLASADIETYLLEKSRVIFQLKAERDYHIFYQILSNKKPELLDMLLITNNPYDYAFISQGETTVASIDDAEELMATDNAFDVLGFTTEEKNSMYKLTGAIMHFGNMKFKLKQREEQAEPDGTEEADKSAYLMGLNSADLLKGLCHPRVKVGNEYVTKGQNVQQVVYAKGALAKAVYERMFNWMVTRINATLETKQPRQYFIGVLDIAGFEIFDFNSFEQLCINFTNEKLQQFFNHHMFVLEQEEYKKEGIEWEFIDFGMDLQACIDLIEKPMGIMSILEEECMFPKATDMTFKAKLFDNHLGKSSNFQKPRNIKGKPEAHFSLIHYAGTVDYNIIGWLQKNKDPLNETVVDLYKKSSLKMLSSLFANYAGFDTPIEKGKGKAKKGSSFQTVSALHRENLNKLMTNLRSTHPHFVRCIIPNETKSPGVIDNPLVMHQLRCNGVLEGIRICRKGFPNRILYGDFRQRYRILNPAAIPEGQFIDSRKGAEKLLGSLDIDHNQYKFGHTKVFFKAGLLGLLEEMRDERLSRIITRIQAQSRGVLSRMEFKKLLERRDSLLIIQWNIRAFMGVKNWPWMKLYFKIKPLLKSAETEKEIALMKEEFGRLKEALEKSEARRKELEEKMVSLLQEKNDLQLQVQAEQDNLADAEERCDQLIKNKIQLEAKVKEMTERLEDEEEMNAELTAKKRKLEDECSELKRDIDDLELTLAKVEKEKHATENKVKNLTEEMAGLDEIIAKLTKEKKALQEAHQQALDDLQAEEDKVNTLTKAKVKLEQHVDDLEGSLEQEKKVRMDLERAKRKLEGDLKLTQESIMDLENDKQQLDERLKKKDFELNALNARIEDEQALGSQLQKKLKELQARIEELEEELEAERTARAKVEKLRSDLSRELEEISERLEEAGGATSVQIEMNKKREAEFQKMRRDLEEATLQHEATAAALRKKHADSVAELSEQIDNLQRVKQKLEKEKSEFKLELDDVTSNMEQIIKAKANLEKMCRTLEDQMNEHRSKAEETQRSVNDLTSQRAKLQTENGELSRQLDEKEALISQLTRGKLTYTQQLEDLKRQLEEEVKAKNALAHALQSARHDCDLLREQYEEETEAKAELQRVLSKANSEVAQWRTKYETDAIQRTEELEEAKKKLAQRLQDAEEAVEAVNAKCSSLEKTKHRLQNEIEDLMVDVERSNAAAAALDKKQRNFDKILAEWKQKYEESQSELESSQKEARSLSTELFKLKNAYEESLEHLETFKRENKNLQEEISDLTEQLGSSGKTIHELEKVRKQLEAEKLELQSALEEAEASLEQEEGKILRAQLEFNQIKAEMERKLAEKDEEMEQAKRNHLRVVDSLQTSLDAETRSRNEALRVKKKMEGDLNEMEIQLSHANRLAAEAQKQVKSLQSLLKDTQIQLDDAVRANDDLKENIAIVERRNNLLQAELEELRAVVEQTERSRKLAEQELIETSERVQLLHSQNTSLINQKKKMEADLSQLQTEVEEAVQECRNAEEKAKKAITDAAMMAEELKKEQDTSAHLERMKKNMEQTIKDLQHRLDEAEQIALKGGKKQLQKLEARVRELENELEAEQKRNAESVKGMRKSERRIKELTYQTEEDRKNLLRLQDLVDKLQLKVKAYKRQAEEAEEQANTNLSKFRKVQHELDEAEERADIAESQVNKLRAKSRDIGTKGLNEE
Sequence of bovine cardiac myofibrils (full-length cardiac myosin ATPase in the native sarcomere) (P85100 whole entry partner): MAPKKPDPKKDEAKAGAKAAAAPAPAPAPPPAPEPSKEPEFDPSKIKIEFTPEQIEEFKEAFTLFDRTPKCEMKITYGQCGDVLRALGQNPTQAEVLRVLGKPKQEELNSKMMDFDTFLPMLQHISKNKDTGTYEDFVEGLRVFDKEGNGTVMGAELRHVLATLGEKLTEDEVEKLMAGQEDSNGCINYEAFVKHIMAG
Sequence of bovine cardiac myofibrils (full-length cardiac myosin ATPase in the native sarcomere) (Q3SZE5 whole entry partner): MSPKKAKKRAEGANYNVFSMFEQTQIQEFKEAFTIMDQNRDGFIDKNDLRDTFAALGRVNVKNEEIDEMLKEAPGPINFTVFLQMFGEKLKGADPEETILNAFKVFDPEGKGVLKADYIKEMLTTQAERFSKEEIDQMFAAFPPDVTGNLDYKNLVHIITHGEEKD

Row | SMILES | CDMF75 IC15 [nM] | IC50 [nM]
1 | CCc1nc(-c2ccc3c(c2)CC[C@H]3NC(=O)c2ccn(CCO)c(=O)c2)no1 [Compound 559, (R)-N-(5-(5-ethyl-1,2,4-oxadiazol-3-yl)-2,3-dihydro-1H-inden-1-yl)-1-(2-hydroxyethyl)-2-oxo-1,2-dihydropyridine-4-carboxamide] | 1400 | 5700
2 | CCc1nc(-c2ccc3c(c2)CC[C@H]3NC(=O)c2ccn(C[C@@H](C)O)c(=O)c2)no1 [Compound 560, N-((R)-5-(5-ethyl-1,2,4-oxadiazol-3-yl)-2,3-dihydro-1H-inden-1-yl)-1-((R)-2-hydroxypropyl)-2-oxo-1,2-dihydropyridine-4-carboxamide] | 1300 | 4700
3 | CCc1nc(-c2ccc3c(c2)CC[C@H]3NC(=O)c2coc(C)n2)no1 [Compound 561, (R)-N-(5-(5-ethyl-1,2,4-oxadiazol-3-yl)-2,3-dihydro-1H-inden-1-yl)-2-methyloxazole-4-carboxamide] | 1400 | 7000
4 | CCc1nc(-c2ccc3c(c2)CC[C@H]3NC(=O)c2cc(C)on2)no1 [Compound 569, (R)-N-(5-(5-ethyl-1,2,4-oxadiazol-3-yl)-2,3-dihydro-1H-inden-1-yl)-5-methylisoxazole-3-carboxamide] | 700 | 2800
5 | CCOCCn1cc(C(=O)N[C@@H]2CCc3cc(-c4noc(CC)n4)ccc32)cn1 [Compound 573, (R)-1-(2-ethoxyethyl)-N-(5-(5-ethyl-1,2,4-oxadiazol-3-yl)-2,3-dihydro-1H-inden-1-yl)-1H-pyrazole-4-carboxamide] | 900 | 4100
6 | CCc1nc(-c2ccc3c(c2)CC[C@H]3NC(=O)c2cnn(CCOC)c2C)no1 [Compound 574, (R)-N-(5-(5-ethyl-1,2,4-oxadiazol-3-yl)-2,3-dihydro-1H-inden-1-yl)-1-(2-methoxyethyl)-5-methyl-1H-pyrazole-4-carboxamide] | 1000 | 4200
7 | CCc1nc(-c2ccc3c(c2)CC[C@H]3NC(=O)c2cnn(CCOC)c2C)no1 [Compound 575, (R)-N-(5-(5-ethyl-1,2,4-oxadiazol-3-yl)-2,3-dihydro-1H-inden-1-yl)-1-(2-methoxyethyl)-5-methyl-1H-pyrazole-4-carboxamide] | 1100 | 4200
8 | C[C@@H](O)Cn1cc(C(=O)N[C@@H]2CCc3cc(-c4noc(C5CC5)n4)ccc32)cn1 [Compound 576, N-((R)-5-(5-cyclopropyl-1,2,4-oxadiazol-3-yl)-2,3-dihydro-1H-inden-1-yl)-1-((R)-2-hydroxypropyl)-1H-pyrazole-4-carboxamide] | 3500 | 15200
9 | CCc1nc(-c2ccc3c(c2)CC[C@H]3NC(=O)c2nccn2C)no1 [Compound 579, (R)-N-(5-(5-ethyl-1,2,4-oxadiazol-3-yl)-2,3-dihydro-1H-inden-1-yl)-1-methyl-1H-imidazole-2-carboxamide] | 1200 | 5100
10 | CCc1nc(-c2ccc3c(c2)CC[C@H]3NC(=O)c2cc(C)n(C)n2)no1 [Compound 580, (R)-N-(5-(5-ethyl-1,2,4-oxadiazol-3-yl)-2,3-dihydro-1H-inden-1-yl)-1,5-dimethyl-1H-pyrazole-3-carboxamide] | 3100 | 17600

Compounds with a lower IC50, results first:

Row | CDMF75 IC15 [nM] | IC50 [nM] | SMILES
11 | 300 | 1000 | CCc1nc(-c2ccc3c(c2F)CC[C@H]3NC(=O)c2cnn(C)c2)no1 [Compound 562, (R)-N-(5-(5-ethyl-1,2,4-oxadiazol-3-yl)-4-fluoro-2,3-dihydro-1H-inden-1-yl)-1-methyl-1H-pyrazole-4-carboxamide]
12 | 400 | 1200 | CCc1nc(-c2ccc3c(c2)CC[C@H]3NC(=O)c2cn(C)nc2C)no1 [Compound 563, (R)-N-(5-(5-ethyl-1,2,4-oxadiazol-3-yl)-2,3-dihydro-1H-inden-1-yl)-1,3-dimethyl-1H-pyrazole-4-carboxamide]
13 | 200 | 600 | CCc1nc(-c2ccc3c(c2)CC[C@H]3NC(=O)c2cnoc2C)no1 [Compound 564, (R)-N-(5-(5-ethyl-1,2,4-oxadiazol-3-yl)-2,3-dihydro-1H-inden-1-yl)-5-methylisoxazole-4-carboxamide]
14 | 200 | 800 | CCc1nc(-c2ccc3c(c2)CC[C@H]3NC(=O)c2conc2C)no1 [Compound 566, (R)-N-(5-(5-ethyl-1,2,4-oxadiazol-3-yl)-2,3-dihydro-1H-inden-1-yl)-3-methylisoxazole-4-carboxamide]
15 | 300 | 1000 | CCc1nc(-c2ccc3c(c2)CC[C@H]3NC(=O)c2cc(C)nn2C)no1 [Compound 567, (R)-N-(5-(5-ethyl-1,2,4-oxadiazol-3-yl)-2,3-dihydro-1H-inden-1-yl)-1,3-dimethyl-1H-pyrazole-5-carboxamide]
16 | 400 | 1600 | CCc1nc(-c2ccc3c(c2)CC[C@H]3NC(=O)c2cnc(C)n2C)no1 [Compound 568, (R)-N-(5-(5-ethyl-1,2,4-oxadiazol-3-yl)-2,3-dihydro-1H-inden-1-yl)-1,2-dimethyl-1H-imidazole-5-carboxamide]
17 | 400 | 1400 | CCc1nc(-c2ccc3c(c2)CC[C@H]3NC(=O)c2cnn(C)c2C)no1 [Compound 570, (R)-N-(5-(5-ethyl-1,2,4-oxadiazol-3-yl)-2,3-dihydro-1H-inden-1-yl)-1,5-dimethyl-1H-pyrazole-4-carboxamide]
18 | 400 | 1300 | CCc1nc(-c2ccc3c(c2)CC[C@H]3NC(=O)c2cnn(C)c2C)no1 [Compound 571, (R)-N-(5-(5-ethyl-1,2,4-oxadiazol-3-yl)-2,3-dihydro-1H-inden-1-yl)-1,5-dimethyl-1H-pyrazole-4-carboxamide]
19 | 500 | 1800 | CCc1nc(-c2ccc3c(c2)CC[C@H]3NC(=O)c2cnn(CCO)c2C)no1 [Compound 572, (R)-N-(5-(5-ethyl-1,2,4-oxadiazol-3-yl)-2,3-dihydro-1H-inden-1-yl)-1-(2-hydroxyethyl)-5-methyl-1H-pyrazole-4-carboxamide]
20 | 400 | 1200 | CCc1nc(-c2ccc3c(c2)CC[C@H]3NC(=O)c2ccnc(C(F)F)c2)no1 [Compound 578, (R)-2-(difluoromethyl)-N-(5-(5-ethyl-1,2,4-oxadiazol-3-yl)-2,3-dihydro-1H-inden-1-yl)isonicotinamide]
21 | 400 | 1400 | CCc1nc(-c2ccc3c(c2)CC[C@H]3NC(=O)c2ccno2)no1 [Compound 581, (R)-N-(5-(5-ethyl-1,2,4-oxadiazol-3-yl)-2,3-dihydro-1H-inden-1-yl)isoxazole-5-carboxamide]
22 | 400 | 1300 | CCc1nc(-c2ccc3c(c2)CC[C@H]3NC(=O)c2ccno2)no1 [Compound 582, (R)-N-(5-(5-ethyl-1,2,4-oxadiazol-3-yl)-2,3-dihydro-1H-inden-1-yl)isoxazole-5-carboxamide]
23 | 400 | 1300 | CCc1nc(-c2ccc3c(c2)CC[C@H]3NC(=O)c2cnco2)no1 [Compound 583, (R)-N-(5-(5-ethyl-1,2,4-oxadiazol-3-yl)-2,3-dihydro-1H-inden-1-yl)oxazole-5-carboxamide]

Source: patent publication US12065436B2, “Cardiac sarcomere inhibitors” (Cytokinetics, Inc., priority 2018, dated 2024)
